Drawing on patent US20240299385A1 (ReWind Therapeutics NV, priority 2021, published 2024), this text covers IC50 for 28 compounds.

pIC50: −log10 of the molar value. A value given as a limit tells only on which side of the number the result lay.

T1 sequence (Q13304 whole entry): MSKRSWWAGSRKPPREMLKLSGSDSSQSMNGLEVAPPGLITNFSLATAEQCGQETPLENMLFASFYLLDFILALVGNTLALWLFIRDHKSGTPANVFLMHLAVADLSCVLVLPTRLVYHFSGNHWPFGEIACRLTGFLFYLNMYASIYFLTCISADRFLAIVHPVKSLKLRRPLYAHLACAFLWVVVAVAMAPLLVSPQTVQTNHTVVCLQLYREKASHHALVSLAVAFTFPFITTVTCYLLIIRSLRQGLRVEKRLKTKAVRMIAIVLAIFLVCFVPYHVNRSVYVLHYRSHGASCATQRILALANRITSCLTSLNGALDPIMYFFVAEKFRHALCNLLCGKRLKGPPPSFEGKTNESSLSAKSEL

The experiment addresses T1, human GPR17 receptor (Homo sapiens, UniProt Q13304).
T1 construct: host or cells: HEK-293
Put plainly: Calcium mobilization functional assay (Fluo-8, FLIPR TETRA) in HEK-293 hGPR17 (Gα-q assay). Type of experiment: cell-based. The note with it: antagonism of MDL29,951 (~EC80) induced Ca2+ signal; cell line (HEK-293 hGPR17 or HEK-293 Suchi5 hGPR17) not given. The method in brief:
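Fluo-8-loaded HEK-293 hGPR17 cells (60 min dye loading, room temperature) were preincubated with compound for twenty minutes, then challenged with agonist MDL29,951 at ~EC80, 500 nM. Intracellular calcium release via Gα-q was recorded as FLIPR fluorescence for a further 2 minutes; compounds tested in duplicate.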
For `O=S(=O)(Nc1cc(F)c(C(F)(F)F)cc1F)c1c[nH]c(-c2nccn2CC(F)(F)F)c1` [Cpd 243, N-[2,5-difluoro-4-(trifluoromethyl)phenyl]-5-[1-(2,2,2-trifluoroethyl)imidazol-2-yl]-1H-pyrrole-3-sulfonamide], the pIC50 was 4.30 to 5.30.
With `N#Cc1ccc(NS(=O)(=O)c2c[nH]c(-c3ccccc3OC(F)F)c2)c(F)c1` [Cpd 244, N-(4-cyano-2-fluoro-phenyl)-5-[2-(difluoromethoxy)phenyl]-1H-pyrrole-3-sulfonamide], the pIC50 is over 6.30.
With `O=C1CCCN1c1cc(S(=O)(=O)Nc2cc(F)c(C(F)(F)F)cc2F)c[nH]1` [Cpd 245, N-[2,5-difluoro-4-(trifluoromethyl)phenyl]-5-(2-oxopyrrolidin-1-yl)-1H-pyrrole-3-sulfonamide], the pIC50 is 4.30 to 5.30.
With `O=S(=O)(Nc1cc(F)c(OC(F)(F)F)cc1F)c1c[nH]c(-c2ccccn2)c1` [Cpd 246, N-[2,5-difluoro-4-(trifluoromethoxy)phenyl]-5-(2-pyridyl)-1H-pyrrole-3-sulfonamide], the pIC50 is over 6.30.
`COc1ccnc(F)c1-c1cc(S(=O)(=O)Nc2cc(F)c(C(F)(F)F)cc2F)c[nH]1` [Cpd 247, N-[2,5-difluoro-4-(trifluoromethyl)phenyl]-5-(2-fluoro-4-methoxy-3-pyridyl)-1H-pyrrole-3-sulfonamide]: the pIC50 is 5.30 to 6.30.
Take `CCn1ccnc1-c1cc(S(=O)(=O)Nc2cc(F)c(C(F)(F)F)cc2F)c[nH]1` [Cpd 248, N-[2,5-difluoro-4-(trifluoromethyl)phenyl]-5-(1-ethylimidazol-2-yl)-1H-pyrrole-3-sulfonamide]: the pIC50 was 5.30 to 6.30.
With `Cc1c(F)cccc1-c1cc(S(=O)(=O)Nc2ccc(C#N)cc2F)c[nH]1` [Cpd 249, N-(4-cyano-2-fluoro-phenyl)-5-(3-fluoro-2-methyl-phenyl)-1H-pyrrole-3-sulfonamide], the pIC50 was 5.30 to 6.30.
Regarding `Cc1ccc(-c2cc(S(=O)(=O)Nc3ccc(C#N)cc3F)c[nH]2)c(Cl)c1` [Cpd 250, 5-(2-chloro-4-methyl-phenyl)-N-(4-cyano-2-fluoro-phenyl)-1H-pyrrole-3-sulfonamide], the pIC50 was 5.30 to 6.30.
`COc1ccc(-c2cc(S(=O)(=O)Nc3ccc(C#N)cc3F)c[nH]2)c(C)c1` [Cpd 251, N-(4-cyano-2-fluoro-phenyl)-5-(4-methoxy-2-methyl-phenyl)-1H-pyrrole-3-sulfonamide]: the pIC50 was 4.30 to 5.30.
The figure for `Cc1cccc(-c2cc(S(=O)(=O)Nc3ccc(C#N)cc3F)c[nH]2)c1C` [Cpd 252, N-(4-cyano-2-fluoro-phenyl)-5-(2,3-dimethylphenyl)-1H-pyrrole-3-sulfonamide] is 5.30 to 6.30; for `Cc1c(Cl)cccc1-c1cc(S(=O)(=O)Nc2ccc(C#N)cc2F)c[nH]1` [Cpd 253, 5-(3-chloro-2-methyl-phenyl)-N-(4-cyano-2-fluoro-phenyl)-1H-pyrrole-3-sulfonamide] it is 5.30 to 6.30.
Consider `Cc1ccc(Cl)c(-c2cc(S(=O)(=O)Nc3ccc(C#N)cc3F)c[nH]2)c1` [Cpd 254, 5-(2-chloro-5-methyl-phenyl)-N-(4-cyano-2-fluoro-phenyl)-1H-pyrrole-3-sulfonamide], for which the pIC50 is 5.30 to 6.30.
The same measure for `Cc1cc(F)ccc1-c1cc(S(=O)(=O)Nc2ccc(C#N)cc2F)c[nH]1` [Cpd 255, N-(4-cyano-2-fluoro-phenyl)-5-(4-fluoro-2-methyl-phenyl)-1H-pyrrole-3-sulfonamide]: 5.30 to 6.30; for `N#Cc1ccc(NS(=O)(=O)c2c[nH]c(-c3cc(F)ccc3Cl)c2)c(F)c1` [Cpd 256, 5-(2-chloro-5-fluoro-phenyl)-N-(4-cyano-2-fluoro-phenyl)-1H-pyrrole-3-sulfonamide]: over 6.30.
The figure for `COc1ccc(Cl)c(-c2cc(S(=O)(=O)Nc3ccc(C#N)cc3F)c[nH]2)c1` [Cpd 257, 5-(2-chloro-5-methoxy-phenyl)-N-(4-cyano-2-fluoro-phenyl)-1H-pyrrole-3-sulfonamide] is over 6.30.
The figure for `N#Cc1ccc(NS(=O)(=O)c2c[nH]c(-c3ccc(F)cc3Cl)c2)c(F)c1` [Cpd 258, 5-(2-chloro-4-fluoro-phenyl)-N-(4-cyano-2-fluoro-phenyl)-1H-pyrrole-3-sulfonamide] is over 6.30.
Take `COc1cc(-c2cc(S(=O)(=O)Nc3ccc(C#N)cc3F)c[nH]2)ccc1F` [Cpd 259, N-(4-cyano-2-fluoro-phenyl)-5-(4-fluoro-3-methoxy-phenyl)-1H-pyrrole-3-sulfonamide]: the pIC50 is 5.30 to 6.30.
The same measure for `N#Cc1ccc(NS(=O)(=O)c2c[nH]c(-c3cc(Cl)ccc3Cl)c2)c(F)c1` [Cpd 260, N-(4-cyano-2-fluoro-phenyl)-5-(2,5-dichlorophenyl)-1H-pyrrole-3-sulfonamide]: over 6.30; for `N#Cc1ccc(NS(=O)(=O)c2c[nH]c(-c3ccc(Cl)cc3Cl)c2)c(F)c1` [Cpd 261, N-(4-cyano-2-fluoro-phenyl)-5-(2,4-dichlorophenyl)-1H-pyrrole-3-sulfonamide]: 5.30 to 6.30.
The same measure for `Cc1cc(Cl)ccc1-c1cc(S(=O)(=O)Nc2ccc(C#N)cc2F)c[nH]1` [Cpd 262, 5-(4-chloro-2-methyl-phenyl)-N-(4-cyano-2-fluoro-phenyl)-1H-pyrrole-3-sulfonamide]: 5.30 to 6.30; for `Cc1cccc(-c2cc(S(=O)(=O)Nc3ccc(C#N)cc3F)c[nH]2)c1Cl` [Cpd 263, 5-(2-chloro-3-methyl-phenyl)-N-(4-cyano-2-fluoro-phenyl)-1H-pyrrole-3-sulfonamide]: 5.30 to 6.30; for `Cc1ccc(-c2cc(S(=O)(=O)Nc3ccc(C#N)cc3F)c[nH]2)cc1F` [Cpd 264, N-(4-cyano-2-fluoro-phenyl)-5-(3-fluoro-4-methyl-phenyl)-1H-pyrrole-3-sulfonamide]: 5.30 to 6.30.
For the compound `COc1cccc(Cl)c1-c1cc(S(=O)(=O)Nc2ccc(C#N)cc2F)c[nH]1` [Cpd 265, 5-(2-chloro-6-methoxy-phenyl)-N-(4-cyano-2-fluoro-phenyl)-1H-pyrrole-3-sulfonamide], the pIC50 was 5.30 to 6.30.
Regarding `COc1cccc(-c2cc(S(=O)(=O)Nc3ccc(C#N)cc3F)c[nH]2)c1Cl` [Cpd 266, 5-(2-chloro-3-methoxy-phenyl)-N-(4-cyano-2-fluoro-phenyl)-1H-pyrrole-3-sulfonamide], the pIC50 was 4.30 to 5.30.
Turning to `N#Cc1ccc(NS(=O)(=O)c2c[nH]c(-c3cccc(F)c3Cl)c2)c(F)c1` [Cpd 267, 5-(2-chloro-3-fluoro-phenyl)-N-(4-cyano-2-fluoro-phenyl)-1H-pyrrole-3-sulfonamide], the pIC50 is over 6.30.
The figure for `COc1ccc(C)c(-c2cc(S(=O)(=O)Nc3ccc(C#N)cc3F)c[nH]2)c1` [Cpd 268, N-(4-cyano-2-fluoro-phenyl)-5-(5-methoxy-2-methyl-phenyl)-1H-pyrrole-3-sulfonamide] is 5.30 to 6.30.
The same measure for `Cc1cc(-c2cc(S(=O)(=O)Nc3ccc(C#N)cc3F)c[nH]2)ccc1F` [Cpd 269, N-(4-cyano-2-fluoro-phenyl)-5-(4-fluoro-3-methyl-phenyl)-1H-pyrrole-3-sulfonamide]: over 6.30.
`N#Cc1ccc(NS(=O)(=O)c2c[nH]c(-c3c(Cl)cccc3Cl)c2)c(F)c1` [Cpd 270, N-(4-cyano-2-fluoro-phenyl)-5-(2,6-dichlorophenyl)-1H-pyrrole-3-sulfonamide]: the pIC50 is 5.30 to 6.30.
